Assay results as given in patent US20220363727A1, “ANTIBACTERIAL PEPTIDE DERIVED FROM ERYTHROCULTER ILISHAEFORMIS AND USE THEREOF” (SOOCHOW UNIVERSITY, priority 2020, published 2022).
Converted amounts (≈) assume the structure as drawn. Where two headings read alike, the source gives them in different places. Bridge positions count the residues as written; N and C are the ends. Ends that are not written are not given here.

How the values were obtained:
Format in all cases: cell-based
Vibrio cholerae = experiment: MIC by two-fold dilution method
Protocol: (§1) The antibacterial activity of LEAP-2 from Erythroculter ilishaeformis (having the amino acid sequence as shown in SEQ ID NO: 1) against fish pathogens was tested by a two-fold dilution method. […] Aeromonas sobria, Aeromonas hydrophila, Vibrio harveyi, Vibrio parahaemolyticus, Vibrio anguillarum, Vibrio vulnificus, Vibrio splendidus and Vibrio cholerae were cultured in a nutrient broth medium to the logarithmic phase, and then diluted with fresh nutrient broth medium to 10^5 CFU/mL. Then, 50 μL of diluted bacterial solution was added to each well of the 96-well plate containing the prepared two-fold dilution of LEAP-2 from Erythroculter ilishaeformis. After culturing at 37° C. for 18 hours, the minimal inhibitory concentration (MIC) was measured.

V. parahaemolyticus = experiment: Checkerboard test for synergy of LEAP-2 and ampicillin; settings: Vibrio parahaemolyticus; for MIC used in combination: ampicillin and LEAP-2 used in combination
Protocol: (§2) 50 μL was added to each well, and uniformly mixed. […] 100 μL of bacterial solution was added to each well.

V. harveyi = experiment: as above; settings: Vibrio harveyi; for MIC used in combination: ampicillin and LEAP-2 used in combination
Protocol: as §2

Vibrio parahaemolyticus = experiment: microbe, parasite or virus in culture
Protocol: as §1

Vibrio anguillarum = experiment: microbe, parasite or virus in culture
Protocol: as §1

Aeromonas sobria = experiment: microbe, parasite or virus in culture
Protocol: as §1

Vibrio harveyi = experiment: microbe, parasite or virus in culture
Protocol: as §1

Aeromonas hydrophila = experiment: microbe, parasite or virus in culture
Protocol: as §1

Vibrio vulnificus = experiment: microbe, parasite or virus in culture
Protocol: as §1

Vibrio splendidus = experiment: microbe, parasite or virus in culture
Protocol: as §1

[1] = system: Aeromonas hydrophila (penicillin-resistant strain); experiment: Kinetic analysis of antibacterial action (CFU counts over time); settings: for Number of bacteria co-cultured with sample: LEAP-2 5×MIC 93.75 μg/mL
Protocol: Aeromonas hydrophila (penicillin-resistant strain) was cultured to the logarithmic phase and diluted with fresh nutrient broth medium to 10^5 CFU/mL. […] At each time point, 50 μL of bacterial solution was taken and diluted 1000 times with nutrient broth medium. Then 50 μL of the dilution was spread on a nutrient broth agarose plate. After culturing at 37° C. for 12 hours, the CFU was calculated.

Q: What does the source list for `CC1(C)S[C@@H]2[C@H](NC(=O)[C@H](N)c3ccccc3)C(=O)N2[C@H]1C(=O)O` [Ampicillin]?
A: MIC (Vibrio cholerae; 37° C., 18 hours, average of three experiments): >200 µg/mL; MIC (Vibrio cholerae; 18 h): > 200 µg/mL; MIC (V. parahaemolyticus; read-out: MIC used alone): 18.8 µg/mL; FIC (V. parahaemolyticus; MIC in combination/MIC alone): 0.25; MIC used in combination (V. parahaemolyticus): 4.69 µg/mL; MIC (V. harveyi; read-out: MIC used alone): 37.5 µg/mL; MIC used in combination (V. harveyi): 4.69 µg/mL; MIC (Vibrio parahaemolyticus; Vibrio parahaemolyticus, 37° C., 18 hours, average of three experiments, read-out: MIC): 18.8 µg/mL (≈ 53.7 µM); MIC (Vibrio anguillarum; Vibrio anguillarum, 37° C., 18 hours, average of three experiments): >200 µg/mL; MIC (Vibrio anguillarum; Vibrio anguillarum, 37° C., 18 hours, average of three experiments, read-out: MIC): > 200 µg/mL; MIC (Aeromonas sobria; Aeromonas sobria, 37° C., 18 hours, average of three experiments): >200 µg/mL; MIC (Aeromonas sobria; Aeromonas sobria, 37° C., 18 hours, average of three experiments, read-out: MIC): > 200 µg/mL; MIC (Vibrio harveyi; Vibrio harveyi, 37° C., 18 hours, average of three experiments, read-out: MIC): 37.5 µg/mL (≈ 107 µM); MIC (Aeromonas hydrophila; Aeromonas hydrophila, 37° C., 18 hours, average of three experiments): >200 µg/mL; MIC (Aeromonas hydrophila; Aeromonas hydrophila, 37° C., 18 hours, average of three experiments, read-out: MIC): > 200 µg/mL; MIC (Vibrio vulnificus; Vibrio vulnificus, 37° C., 18 hours, average of three experiments): >200 µg/mL; MIC (Vibrio vulnificus; Vibrio vulnificus, 37° C., 18 hours, average of three experiments, read-out: MIC): > 200 µg/mL; MIC (Vibrio splendidus; Vibrio splendidus, 37° C., 18 hours, average of three experiments): >200 µg/mL; MIC (Vibrio splendidus; Vibrio splendidus, 37° C., 18 hours, average of three experiments, read-out: MIC): > 200 µg/mL; Number of bacteria co-cultured with sample ([1]; 0 min, ampicillin 1 mg/mL): 67 ± 7.5 ×10^3, CFUs/mL; Number of bacteria co-cultured with sample ([1]; 10 min, ampicillin 1 mg/mL): 69 ± 8.1 ×10^3, CFUs/mL; Number of bacteria co-cultured with sample ([1]; 20 min, ampicillin 1 mg/mL): 70 ± 7.2 ×10^3, CFUs/mL; Number of bacteria co-cultured with sample ([1]; 30 min, ampicillin 1 mg/mL): 72 ± 6.9 ×10^3, CFUs/mL; Number of bacteria co-cultured with sample ([1]; 45 min, ampicillin 1 mg/mL): 85 ± 6.9 ×10^3, CFUs/mL; Number of bacteria co-cultured with sample ([1]; 90 min, ampicillin 1 mg/mL): 197 ± 12.6 ×10^3, CFUs/mL; Number of bacteria co-cultured with sample ([1]; 120 min, ampicillin 1 mg/mL): 378 ± 41.5 ×10^3, CFUs/mL; Number of bacteria co-cultured with sample ([1]; 180 min, ampicillin 1 mg/mL): 961 ± 87.3 ×10^3, CFUs/mL; CFU of Aeromonas hydrophila after 180 minutes of incubation ([1]; ampicillin 1 mg/mL, 2862.0 μM, 180 minutes): 9.6×10^5 CFUs/mL; CFU of Aeromonas hydrophila at start ([1]; ampicillin 1 mg/mL, 2862.0 μM, before incubation): 6.7×10^4 CFUs/mL

Q: How did the “MIC (molar, in brackets)” value (Vibrio cholerae; converted from μg/mL) turn out when “MTPLWRIMLLFKPHALCQNNYACSTGLCRYGHCSALQTILS (disulfide 17-28, 23-33) [LEAP-2]” was run?
A: (8.1 μM)

Q: What about the “MIC used in combination” value (V. parahaemolyticus) of the same compound?
A: 18.75 µg/mL

Q: And the “MIC used in combination” value (V. harveyi)?
A: 18.75 µg/mL

Q: And the MIC (Vibrio parahaemolyticus; 18 h)?
A: 75 µg/mL

Q: What about the “MIC (molar, in brackets)” value (Vibrio parahaemolyticus; Vibrio parahaemolyticus, converted from μg/mL) of the same compound?
A: (16.1 μM)

Q: What about the MIC (Vibrio anguillarum; 18 h) of the same compound?
A: 150 µg/mL

Q: What about the “MIC (molar, in brackets)” value (Vibrio anguillarum; Vibrio anguillarum, converted from μg/mL) of the same compound?
A: (32.2 μM)

Q: What about the MIC (Aeromonas sobria; 18 h) of the same compound?
A: 75 µg/mL

Q: And the “MIC (molar, in brackets)” value (Aeromonas sobria; Aeromonas sobria, converted from μg/mL)?
A: (16.1 μM)

Q: What about the MIC (Vibrio harveyi; 18 h) of the same compound?
A: 75 µg/mL

Q: What about the “MIC (molar, in brackets)” value (Vibrio harveyi; Vibrio harveyi, converted from μg/mL) of the same compound?
A: (16.1 μM)

Q: What about the MIC (Aeromonas hydrophila; 18 h) of the same compound?
A: 18.75 µg/mL

Q: And the “MIC (molar, in brackets)” value (Aeromonas hydrophila; Aeromonas hydrophila, converted from μg/mL)?
A: (4.0 μM)

Q: What about the MIC (Vibrio vulnificus; 18 h) of the same compound?
A: 37.5 µg/mL

Q: What about the “MIC (molar, in brackets)” value (Vibrio vulnificus; Vibrio vulnificus, converted from μg/mL) of the same compound?
A: (8.1 μM)

Q: What about the MIC (Vibrio splendidus; 18 h) of the same compound?
A: 150 µg/mL

Q: And the “MIC (molar, in brackets)” value (Vibrio splendidus; Vibrio splendidus, converted from μg/mL)?
A: (32.2 μM)

Q: And the “Number of bacteria co-cultured with sample” value (“Number” for short) ([1]; 0 min, ampicillin 1 mg/mL)?
A: 65 ± 5.3 ×10^3, CFUs/mL

Q: And the “time to kill all bacteria” value ([1]; 5×MIC, i.e., 20.2 μM)?
A: ≤ 60 min

Q: What about the “Number” value ([1]; 10 min, ampicillin 1 mg/mL) of the same compound?
A: 59 ± 7.4 ×10^3, CFUs/mL

Q: And the “Number” value ([1]; 20 min, ampicillin 1 mg/mL)?
A: 40 ± 8.4 ×10^3, CFUs/mL

Q: And the “Number” value ([1]; 30 min, ampicillin 1 mg/mL)?
A: 28 ± 5.9 ×10^3, CFUs/mL

Q: What about the “Number” value ([1]; 45 min, ampicillin 1 mg/mL) of the same compound?
A: 11 ± 3.5 ×10^3, CFUs/mL

Q: What about the “Number” value ([1]; 60 min, ampicillin 1 mg/mL) of the same compound?
A: 0 ×10^3, CFUs/mL

Q: What about the “Number” value ([1]; 90 min, ampicillin 1 mg/mL) of the same compound?
A: 0 ×10^3, CFUs/mL

Q: What about the “Number” value ([1]; 120 min, ampicillin 1 mg/mL) of the same compound?
A: 0 ×10^3, CFUs/mL

Q: What about the “Number” value ([1]; 180 min, ampicillin 1 mg/mL) of the same compound?
A: 0 ×10^3, CFUs/mL
